In patent US8664277B2, “Compounds and methods for PKCθ inhibition” (Complegen Partners, LLC, priority 2008, dated 2014):
Read-outs that look alike come from different tables or passages of the source.

How the values were obtained:
Type in all cases: cell-based
Human PKC theta = biological target: T1, Human PKC theta (Homo sapiens, UniProt Q04759); experiment: XenoGene yeast growth inhibition, yeast containing human PKC theta gene
T1 construct: expressed in transfected cells; host or cells: yeast (XenoGene strain)
Source text: Using the XenoGene™ system described within, compounds inhibiting PKCθ are identified. The XenoGene™ system is a technology developed and patented by CompleGen wherein genes (“XenoGenes”™) from a target organism (e.g. humans) are used to functionally replace essential genes of a simple organism (yeast). These modified yeast are used to select compounds that act specifically on the protein encoded by the target gene and eliminate compounds that are not specific. […]

PKC delta = biological target: T2, PKC delta (Homo sapiens, UniProt Q05655); experiment: XenoGene counter-screen, PKC delta; conditions: inverse of (PKC-theta IC50)/(PKC-X IC50)
T2 construct: expressed in transfected cells; host or cells: yeast (XenoGene strain)
Protocol: (§1) To identify compounds as being selective PKC theta inhibitors the IC50 values are determined against XenoGene™ strains containing other XenoGenes™, especially certain other PKC genes (see Example 10).
(§2) Human PKC theta gene (cDNA) was used to generate a XenoGene™ system as previously described (U.S. Pat. Nos. 6,998,261, 6,232,074), which was used to screen compounds in a chemical compound library. XenoGene™ systems used as counter-screens were constructed similarly using the gene for the appropriate counter-screen target. In particular, human genes (cDNA) encoding PKC delta, PKC eta and PKC epsilon were used to generate XenoGene™ systems.

PKC epsilon = biological target: T3, PKC epsilon (Homo sapiens, UniProt Q02156); experiment: XenoGene counter-screen, PKC epsilon; conditions: inverse of (PKC-theta IC50)/(PKC-X IC50)
T3 construct: expressed in transfected cells; host or cells: yeast (XenoGene strain)
T3 sequence (Q02156 1-737): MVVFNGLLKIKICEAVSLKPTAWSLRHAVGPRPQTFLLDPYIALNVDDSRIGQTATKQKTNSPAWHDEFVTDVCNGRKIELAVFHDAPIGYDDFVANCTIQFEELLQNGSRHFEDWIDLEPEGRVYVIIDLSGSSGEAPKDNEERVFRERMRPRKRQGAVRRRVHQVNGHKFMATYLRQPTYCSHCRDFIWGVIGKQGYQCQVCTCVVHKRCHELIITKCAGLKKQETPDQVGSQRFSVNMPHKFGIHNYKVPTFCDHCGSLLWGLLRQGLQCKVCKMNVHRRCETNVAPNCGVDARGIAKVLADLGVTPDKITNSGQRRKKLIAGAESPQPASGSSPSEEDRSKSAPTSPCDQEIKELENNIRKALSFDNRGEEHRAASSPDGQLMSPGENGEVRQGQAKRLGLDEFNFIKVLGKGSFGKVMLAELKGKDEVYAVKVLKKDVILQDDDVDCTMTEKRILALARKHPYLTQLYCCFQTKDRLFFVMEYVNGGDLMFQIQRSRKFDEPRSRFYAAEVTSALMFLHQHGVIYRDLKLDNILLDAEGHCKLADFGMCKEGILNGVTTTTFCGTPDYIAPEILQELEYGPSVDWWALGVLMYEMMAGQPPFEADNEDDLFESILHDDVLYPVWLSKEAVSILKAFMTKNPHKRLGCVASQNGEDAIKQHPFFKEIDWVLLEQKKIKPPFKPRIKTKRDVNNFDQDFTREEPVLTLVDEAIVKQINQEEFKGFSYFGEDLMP
Protocol: as §1, §2

yeast PKC1 = biological target: T4, yeast PKC1 (Saccharomyces cerevisiae, UniProt P24583); experiment: XenoGene counter-screen, yeast PKC1; conditions: inverse of (PKC-theta IC50)/(PKC-X IC50)
T4 construct: endogenous in cells; host or cells: yeast control strain
T4 sequence (P24583 1-1151): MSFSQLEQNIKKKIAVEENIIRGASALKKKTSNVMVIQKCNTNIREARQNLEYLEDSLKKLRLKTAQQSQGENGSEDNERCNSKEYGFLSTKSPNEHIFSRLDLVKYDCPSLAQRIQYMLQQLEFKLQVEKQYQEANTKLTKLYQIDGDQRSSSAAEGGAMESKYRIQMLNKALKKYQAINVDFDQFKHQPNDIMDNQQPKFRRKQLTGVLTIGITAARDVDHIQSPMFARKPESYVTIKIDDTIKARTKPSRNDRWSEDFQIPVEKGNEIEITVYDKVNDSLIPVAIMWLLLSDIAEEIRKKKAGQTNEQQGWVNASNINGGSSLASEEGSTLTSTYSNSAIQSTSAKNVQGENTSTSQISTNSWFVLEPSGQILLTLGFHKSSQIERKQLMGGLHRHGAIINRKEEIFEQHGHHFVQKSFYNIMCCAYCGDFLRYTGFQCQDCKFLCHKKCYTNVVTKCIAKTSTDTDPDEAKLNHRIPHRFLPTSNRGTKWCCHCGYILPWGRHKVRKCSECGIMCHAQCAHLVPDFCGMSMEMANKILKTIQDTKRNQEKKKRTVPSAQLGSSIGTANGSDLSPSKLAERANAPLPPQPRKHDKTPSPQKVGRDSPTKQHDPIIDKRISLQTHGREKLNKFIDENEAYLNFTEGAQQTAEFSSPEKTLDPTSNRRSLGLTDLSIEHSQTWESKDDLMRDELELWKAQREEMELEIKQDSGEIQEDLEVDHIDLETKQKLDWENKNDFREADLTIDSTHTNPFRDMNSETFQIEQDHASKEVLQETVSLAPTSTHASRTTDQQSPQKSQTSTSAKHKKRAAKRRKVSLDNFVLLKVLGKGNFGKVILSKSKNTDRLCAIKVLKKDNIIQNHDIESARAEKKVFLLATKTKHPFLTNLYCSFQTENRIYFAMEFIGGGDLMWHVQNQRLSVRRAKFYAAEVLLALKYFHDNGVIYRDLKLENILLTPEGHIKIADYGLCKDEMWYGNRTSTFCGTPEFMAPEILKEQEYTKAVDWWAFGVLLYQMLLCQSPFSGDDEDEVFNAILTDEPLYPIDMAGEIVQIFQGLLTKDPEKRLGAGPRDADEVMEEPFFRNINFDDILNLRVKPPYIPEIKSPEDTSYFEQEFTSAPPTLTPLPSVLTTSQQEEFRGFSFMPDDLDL
Source text: Using the XenoGene™ system described within, compounds inhibiting PKCθ are identified. The XenoGene™ system is a technology developed and patented by CompleGen wherein genes (“XenoGenes”™) from a target organism (e.g. humans) are used to functionally replace essential genes of a simple organism (yeast). These modified yeast are used to select compounds that act specifically on the protein encoded by the target gene and eliminate compounds that are not specific. XenoGene™ constructs provide a very high throughput screening system that allows identification of compounds active on the function of the target protein in a cell under physiological conditions on “first-pass” screening and further, to selectively counter-screen against 200 human targets or more if necessary. […] The relative potencies of the active compounds is determined by titration to find the concentration of compound providing 50% inhibition of growth (IC50) against the yeast containing the target gene (Table 1).
as §2

PKC eta = biological target: T5, PKC eta (Homo sapiens, UniProt P24723); experiment: XenoGene counter-screen, PKC eta; conditions: inverse of (PKC-theta IC50)/(PKC-X IC50)
T5 construct: expressed in transfected cells; host or cells: yeast (XenoGene strain)
Protocol: as §1, §2

[1] = 50% inhibition of growth of yeast containing the target gene, read-out: IC50
[2] = XenoGene system, read-out: PKC-theta IC50

T1 sequence (Q04759 whole entry): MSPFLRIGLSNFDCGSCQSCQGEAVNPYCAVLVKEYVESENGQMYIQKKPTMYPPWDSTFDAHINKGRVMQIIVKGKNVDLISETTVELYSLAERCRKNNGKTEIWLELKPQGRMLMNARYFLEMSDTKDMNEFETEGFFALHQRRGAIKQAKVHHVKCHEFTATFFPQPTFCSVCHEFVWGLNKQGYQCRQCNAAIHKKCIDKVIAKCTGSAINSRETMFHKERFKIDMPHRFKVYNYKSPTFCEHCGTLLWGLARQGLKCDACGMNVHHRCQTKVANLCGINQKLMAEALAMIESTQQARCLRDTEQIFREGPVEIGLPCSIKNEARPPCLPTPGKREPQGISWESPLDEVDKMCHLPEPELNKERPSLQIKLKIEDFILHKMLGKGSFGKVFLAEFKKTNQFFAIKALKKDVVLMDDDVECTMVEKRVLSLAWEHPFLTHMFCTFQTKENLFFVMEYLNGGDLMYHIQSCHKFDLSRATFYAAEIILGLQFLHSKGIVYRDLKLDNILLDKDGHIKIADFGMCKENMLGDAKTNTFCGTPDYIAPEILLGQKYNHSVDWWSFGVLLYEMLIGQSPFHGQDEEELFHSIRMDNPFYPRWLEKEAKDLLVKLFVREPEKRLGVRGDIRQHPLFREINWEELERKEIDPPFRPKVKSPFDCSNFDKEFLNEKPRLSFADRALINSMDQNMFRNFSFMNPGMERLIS
T5 sequence (P24723 whole entry): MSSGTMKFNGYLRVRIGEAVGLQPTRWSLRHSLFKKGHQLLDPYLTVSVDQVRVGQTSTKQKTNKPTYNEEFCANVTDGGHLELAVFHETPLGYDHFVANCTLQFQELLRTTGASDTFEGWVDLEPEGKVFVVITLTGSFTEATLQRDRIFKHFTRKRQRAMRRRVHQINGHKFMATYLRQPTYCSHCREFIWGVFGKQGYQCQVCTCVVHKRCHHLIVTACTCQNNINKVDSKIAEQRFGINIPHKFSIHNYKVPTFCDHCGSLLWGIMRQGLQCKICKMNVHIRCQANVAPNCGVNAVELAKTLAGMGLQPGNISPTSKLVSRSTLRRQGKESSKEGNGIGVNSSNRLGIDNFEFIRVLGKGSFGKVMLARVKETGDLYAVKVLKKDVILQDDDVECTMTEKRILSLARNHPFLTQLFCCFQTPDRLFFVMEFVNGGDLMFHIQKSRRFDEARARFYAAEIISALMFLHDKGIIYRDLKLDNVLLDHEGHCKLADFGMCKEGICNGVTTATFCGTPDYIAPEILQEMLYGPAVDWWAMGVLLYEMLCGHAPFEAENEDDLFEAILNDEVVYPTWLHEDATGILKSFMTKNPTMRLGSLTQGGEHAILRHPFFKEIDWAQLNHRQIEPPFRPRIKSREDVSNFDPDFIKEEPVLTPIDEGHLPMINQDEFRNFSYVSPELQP
T2 sequence (Q05655 whole entry): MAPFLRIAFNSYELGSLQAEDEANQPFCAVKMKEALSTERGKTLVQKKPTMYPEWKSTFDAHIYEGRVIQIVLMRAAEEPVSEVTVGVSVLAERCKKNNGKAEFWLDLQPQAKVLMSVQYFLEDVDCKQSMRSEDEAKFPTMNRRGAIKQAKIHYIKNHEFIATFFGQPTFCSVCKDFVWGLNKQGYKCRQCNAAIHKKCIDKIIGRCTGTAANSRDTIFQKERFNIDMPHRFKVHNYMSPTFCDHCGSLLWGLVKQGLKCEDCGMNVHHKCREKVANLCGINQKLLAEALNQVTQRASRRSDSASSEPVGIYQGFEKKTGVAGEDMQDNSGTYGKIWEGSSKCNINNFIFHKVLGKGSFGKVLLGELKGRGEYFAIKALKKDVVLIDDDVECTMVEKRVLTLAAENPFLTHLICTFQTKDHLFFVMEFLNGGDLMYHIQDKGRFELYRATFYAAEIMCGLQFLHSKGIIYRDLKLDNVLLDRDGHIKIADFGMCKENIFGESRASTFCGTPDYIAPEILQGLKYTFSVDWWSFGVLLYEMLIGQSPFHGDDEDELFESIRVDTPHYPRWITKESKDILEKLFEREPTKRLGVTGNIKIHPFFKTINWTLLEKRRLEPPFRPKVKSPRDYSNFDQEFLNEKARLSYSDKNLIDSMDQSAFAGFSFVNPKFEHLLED

Row | Structure (SMILES) | IC50 (Human PKC theta; [1]) | other results
1 | Nc1ccc(Oc2ccccc2C(=O)O)cc1 [Compound 553] | > 10000 nM | 
2 | CCC(C)(C)c1ccc(Oc2ccc(N)cc2)cc1 [Compound 730] | < 1000 nM | 
3 | Nc1ccc(Oc2ccc(C(F)(F)F)cc2)cc1 [Compound 733] | 1000 to 10000 nM | 
4 | CC(C)(C)c1ccc(Sc2ccc(N)cc2)cc1 [Compound 740] | < 1000 nM | IC50 (Human PKC theta; [2]): 50 nM; Selectivity for PKC-theta v. PKC-delta (PKC delta): 26; Selectivity for PKC-theta v. PKC-epsilon (PKC epsilon): 12; Selectivity for PKC-theta v. yeast PKC1 (yeast PKC1): 80; Selectivity for PKC-theta v. PKC-eta (PKC eta): 3.0
5 | Nc1ccc(Sc2ccc(C(F)(F)F)cc2)cc1 [Compound 741] | < 1000 nM | IC50 (Human PKC theta; [2]): 250 nM; Selectivity for PKC-theta v. PKC-delta (PKC delta): 8.0; Selectivity for PKC-theta v. PKC-epsilon (PKC epsilon): 16; Selectivity for PKC-theta v. yeast PKC1 (yeast PKC1): 32; Selectivity for PKC-theta v. PKC-eta (PKC eta): 4.0

Second part, led by results:

Row | IC50 (Human PKC theta; [1]) | Structure (SMILES) | other results
6 | < 1000 nM | CC(C)c1ccc(Oc2ccc(N)cc2)cc1 [Compound 742] | 
7 | < 1000 nM | CCCc1ccc(Oc2ccc(N)cc2)cc1 [Compound 745] | 
8 | < 1000 nM | Nc1ccc(Oc2ccc(C(F)(F)F)cc2Br)cc1 [Compound 747] | 
9 | 1000 to 10000 nM | CC(C)(C)c1ccc(S(=O)(=O)c2ccc(N)cc2)cc1 [Compound 749] | 
10 | > 10000 nM | CC(C)(C)c1ccc(S(=O)(=O)c2ccc(N)cc2)cc1 [Compound 750] | 
11 | > 10000 nM | Nc1ccc([S+]([O-])c2ccc(C(F)(F)F)cc2)cc1 (centres unmarked) [Compound 751] | 
12 | 1000 to 10000 nM | Nc1ccc(S(=O)(=O)c2ccc(C(F)(F)F)cc2)cc1 [Compound 753] | 
13 | < 1000 nM | Nc1ccc(Oc2ccc(C3CCCC3)cc2)cc1 [Compound 761] | 
